Measured values taken from US20110086889A1, “TETRAZOLE COMPOUNDS AS OREXIN RECEPTOR ANTAGONISTS” (priority 2009, published 2011).
pIC50: −log10 of the molar value.

Tests used:
[1] = rat; cited from earlier work
[2] = rat model; cited from earlier work
[3] = cited from earlier work
human orexin-1 receptor = biological target: T1, human orexin-1 receptor (Homo sapiens, UniProt O43613); assay: FLIPR calcium assay, orexin receptor antagonistic activity, CHO cells expressing the human orexin-1 receptor; format: cell-based; settings: 3 nM orexin-A as agonist, some values geometric mean of n = 2 or 3, read-out: OX1 IC50
T1 construct: expressed in transfected cells; host or cells: Chinese hamster ovary (CHO) cells, grown under G418 selection
T1 sequence (O43613 1-425): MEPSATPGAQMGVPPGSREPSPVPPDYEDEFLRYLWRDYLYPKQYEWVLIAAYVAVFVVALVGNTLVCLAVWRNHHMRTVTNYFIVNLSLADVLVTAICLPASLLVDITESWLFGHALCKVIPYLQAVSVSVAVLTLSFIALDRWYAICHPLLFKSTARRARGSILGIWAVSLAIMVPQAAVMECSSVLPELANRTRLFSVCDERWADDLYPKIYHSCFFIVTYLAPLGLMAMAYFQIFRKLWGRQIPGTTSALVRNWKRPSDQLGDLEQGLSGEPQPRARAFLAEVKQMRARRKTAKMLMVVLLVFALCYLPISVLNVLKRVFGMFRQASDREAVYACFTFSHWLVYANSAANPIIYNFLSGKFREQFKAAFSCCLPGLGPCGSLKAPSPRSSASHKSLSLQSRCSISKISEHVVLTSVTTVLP
Experimental: (§1) The orexin receptor antagonistic activity of the compounds of formula (I) is determined in accordance with the following experimental method.
(§2) Chinese hamster ovary (CHO) cells expressing the human orexin-1 receptor and the human orexin-2 receptor, respectively, are grown in culture medium (Ham F-12 with L-Glutamine) containing 300 μg/ml G418, 100 U/ml penicillin, 100 μg/ml streptomycin and 10% heat inactivated fetal calf serum (FCS). The cells are seeded at 20,000 cells/well into 384-well black clear bottom sterile plates (Greiner). The seeded plates are incubated overnight at 37° C. in 5% CO2. Human orexin-A as an agonist is prepared as 1 mM stock solution in MeOH:water (1:1), diluted in HBSS containing 0.1% bovine serum albumin (BSA), NaHCO3: 0.375 g/l and 20 mM HEPES for use in the assay at a final concentration of 3 nM.
(§3) Antagonists are prepared as 10 mM stock solution in DMSO, then diluted in 384-well plates using DMSO followed by a transfer of the dilutions into in HBSS containing 0.1% bovine serum albumin (BSA), NaHCO3: 0.375 g/l and 20 mM HEPES. On the day of the assay, 50 μl of staining buffer (HBSS containing 1% FCS, 20 mM HEPES, NaHCO3: 0.375 g/l, 5 mM probenecid (Sigma) and 3 μM of the fluorescent calcium indicator fluo-4 AM (1 mM stock solution in DMSO, containing 10% pluronic) is added to each well. The 384-well cell-plates are incubated for 50 min at 37° C. in 5% CO2 followed by equilibration at r.t. for 30-120 min before measurement.
(§4) Within the Fluorescent Imaging Plate Reader (FLIPR Tetra, Molecular Devices), antagonists are added to the plate in a volume of 10 μl/well, incubated for 10 min and finally 10 μl/well of agonist is added. Fluorescence is measured for each well at 1 second intervals, and the height of each fluorescence peak is compared to the height of the fluorescence peak induced by 3 nM orexin-A with vehicle in place of antagonist. For each antagonist, the IC50 value (the concentration of compound needed to inhibit 50% of the agonistic response) is determined and may be normalized using the obtained IC50 value of a on-plate reference compound. Optimized conditions were achieved by adjustment of pipetting speed and cell splitting regime. The calculated IC50 values of the compounds may fluctuate depending on the daily cellular assay performance. Fluctuations of this kind are known to those skilled in the art.

human orexin-2 receptor = biological target: T2, human orexin-2 receptor (Homo sapiens, UniProt O43614); assay: FLIPR calcium assay, orexin receptor antagonistic activity, CHO cells expressing the human orexin-2 receptor; format: cell-based; settings: 3 nM orexin-A as agonist, some values geometric mean of n = 2 or 3, read-out: OX2 IC50
T2 construct: expressed in transfected cells; host or cells: Chinese hamster ovary (CHO) cells, grown under G418 selection
T2 sequence (O43614 1-444): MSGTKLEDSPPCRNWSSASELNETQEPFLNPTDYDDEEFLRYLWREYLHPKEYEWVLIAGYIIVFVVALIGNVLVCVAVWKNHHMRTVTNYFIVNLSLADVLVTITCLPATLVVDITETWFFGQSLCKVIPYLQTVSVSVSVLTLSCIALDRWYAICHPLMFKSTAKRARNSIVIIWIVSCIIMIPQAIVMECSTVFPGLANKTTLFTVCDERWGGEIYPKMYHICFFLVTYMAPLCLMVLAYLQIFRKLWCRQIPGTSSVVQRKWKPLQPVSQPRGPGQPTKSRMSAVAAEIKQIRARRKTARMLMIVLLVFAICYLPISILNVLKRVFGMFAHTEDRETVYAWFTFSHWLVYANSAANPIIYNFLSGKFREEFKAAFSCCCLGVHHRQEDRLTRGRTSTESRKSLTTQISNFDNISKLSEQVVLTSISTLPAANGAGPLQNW
Experimental: as §1, §2, §3, §4

CNC(=O)[C@@H](c1ccccc1)N1CCc2cc(OC)c(OC)cc2[C@@H]1CCc1ccc(C(F)(F)F)cc1 [(2R)-2-{(1S)-6,7-dimethoxy-1-[2-(4-trifluoromethyl-phenyl)-ethyl]-3,4-dihydro-1H-isoquinolin-2-yl}-N-methyl-2-phenyl-acetamide]
alertness, characterized by active wake and locomotion [1]: decrease alertness
time spent in both REM and NREM sleep [1]: dose-dependently increase
memory function [2]: enhance memory function
activity in a rat model of post-traumatic stress disorder [3]: active

COc1ccc(Cn2nccc2NC(=O)CSc2nnnn2-c2cccc(C)c2C)cc1 [Example 1, 2-[1-(2,3-Dimethyl-phenyl)-1H-tetrazol-5-ylsulfanyl]-N-[2-(4-methoxy-benzyl)-2H-pyrazol-3-yl]-acetamide]
pIC50 (human orexin-1 receptor): 7.49
pIC50 (human orexin-2 receptor): 8.30

COc1ccc(Cn2nccc2NC(=O)CSc2nnnn2-c2cccc(C)c2C)cc1C [Example 2, 2-[1-(2,3-Dimethyl-phenyl)-1H-tetrazol-5-ylsulfanyl]-N-[2-(4-methoxy-3-methyl-benzyl)-2H-pyrazol-3-yl]-acetamide]
pIC50 (human orexin-1 receptor): 7.38
pIC50 (human orexin-2 receptor): 7.60

COc1ccc(Cn2nccc2NC(=O)CSc2nnnn2-c2cccc(C)c2C)cc1OC [Example 10, N-[2-(3,4-Dimethoxy-benzyl)-2H-pyrazol-3-yl]-2-[1-(2,3-dimethyl-phenyl)-1H-tetrazol-5-ylsulfanyl]-acetamide]
pIC50 (human orexin-1 receptor): 7.21
pIC50 (human orexin-2 receptor): 7.05

Cc1ccccc1Cn1nccc1NC(=O)CSc1nnnn1-c1cccc(C)c1C [Example 22, 2-[1-(2,3-Dimethyl-phenyl)-1H-tetrazol-5-ylsulfanyl]-N-[2-(2-methyl-benzyl)-2H-pyrazol-3-yl]-acetamide]
pIC50 (human orexin-1 receptor): 7.32
pIC50 (human orexin-2 receptor): 6.94

COc1ccc(Cn2nccc2NC(=O)CSc2nnnn2-c2cc(C)ccc2C)cc1 [Example 46, 2-[1-(2,5-Dimethyl-phenyl)-1H-tetrazol-5-ylsulfanyl]-N-[2-(4-methoxy-benzyl)-2H-pyrazol-3-yl]-acetamide]
pIC50 (human orexin-1 receptor): 7.96
pIC50 (human orexin-2 receptor): 8.22

COc1ccc(-n2nnnc2SCC(=O)Nc2ccnn2Cc2ccc3c(c2)OCO3)c(OC)c1 [Example 62, N-(2-Benzo[1,3]dioxol-5-ylmethyl-2H-pyrazol-3-yl)-2-[1-(2,4-dimethoxy-phenyl)-1H-tetrazol-5-ylsulfanyl]-acetamide]
pIC50 (human orexin-1 receptor): 5.46
pIC50 (human orexin-2 receptor): 5.74

Cc1cccc(-n2nnnc2SCC(=O)Nc2ccnn2CC2CC2)c1C [Example 76, N-(2-Cyclopropylmethyl-2H-pyrazol-3-yl)-2-[1-(2,3-dimethyl-phenyl)-1H-tetrazol-5-ylsulfanyl]-acetamide]
pIC50 (human orexin-1 receptor): 6.44
pIC50 (human orexin-2 receptor): 6.78

CCC(C)Cn1nccc1NC(=O)CSc1nnnn1-c1cccc(C)c1C (stereo not drawn) [Example 77, 2-[1-(2,3-Dimethyl-phenyl)-1H-tetrazol-5-ylsulfanyl]-N-[2-(2-methyl-butyl)-2H-pyrazol-3-yl]-acetamide]
pIC50 (human orexin-1 receptor): 6.53
pIC50 (human orexin-2 receptor): 6.21

Cc1cccc(-n2nnnc2SCC(=O)Nc2ccnn2CCCc2ccc(OC(F)(F)F)c(F)c2)c1C [Example 85, 2-[1-(2,3-Dimethyl-phenyl)-1H-tetrazol-5-ylsulfanyl]-N-{2-[3-(3-fluoro-4-trifluoromethoxy-phenyl)-propyl]-2H-pyrazol-3-yl}-acetamide]
pIC50 (human orexin-1 receptor): 5.74
pIC50 (human orexin-2 receptor): 6.84

Cc1ccc(C)c(-n2nnnc2SCC(=O)Nc2ccnn2CCc2ccccc2)c1 [Example 89, 2-[1-(2,5-Dimethyl-phenyl)-1H-tetrazol-5-ylsulfanyl]-N-(2-phenethyl-2H-pyrazol-3-yl)-acetamide]
pIC50 (human orexin-1 receptor): 7.36
pIC50 (human orexin-2 receptor): 7.33

COc1ccc(Cn2nccc2NC(=O)CCc2nnnn2-c2cccc3ccccc23)cc1 [Example 115, N-[2-(4-Methoxy-benzyl)-2H-pyrazol-3-yl]-3-(1-naphthalen-1-yl-1H-tetrazol-5-yl)-propionamide]
pIC50 (human orexin-1 receptor): 7.60
pIC50 (human orexin-2 receptor): 7.39

COc1ccc(-n2nccc2NC(=O)CCc2nnnn2-c2c(C)cc(C)cc2C)cc1 [Example 139, N-[2-(4-Methoxy-phenyl)-2H-pyrazol-3-yl]-3-[1-(2,4,6-trimethyl-phenyl)-1H-tetrazol-5-yl]-propionamide]
pIC50 (human orexin-1 receptor): 6.10
pIC50 (human orexin-2 receptor): 6.28

Cc1cccc(-n2nnnc2SCC(=O)Nc2ccnn2-c2ccc(Oc3ccccc3)cc2)c1C [Example 141, 2-[1-(2,3-Dimethyl-phenyl)-1H-tetrazol-5-ylsulfanyl]-N-[2-(4-phenoxy-phenyl)-2H-pyrazol-3-yl]-acetamide]
pIC50 (human orexin-1 receptor): 7.07
pIC50 (human orexin-2 receptor): 7.72

COc1ccc(-n2nccc2NC(=O)CSc2nnnn2-c2cccc(C)c2C)cn1 [Example 147, 2-[1-(2,3-Dimethyl-phenyl)-1H-tetrazol-5-ylsulfanyl]-N-[2-(6-methoxy-pyridin-3-yl)-2H-pyrazol-3-yl]-acetamide]
pIC50 (human orexin-1 receptor): 7.33
pIC50 (human orexin-2 receptor): 5.08

COc1ccc(-n2nccc2NC(=O)CSc2nnnn2-c2c(Cl)cccc2Cl)cc1 [Example 152, 2-[1-(2,6-Dichloro-phenyl)-1H-tetrazol-5-ylsulfanyl]-N-[2-(4-methoxy-phenyl)-2H-pyrazol-3-yl]-acetamide]
pIC50 (human orexin-1 receptor): 7.20
pIC50 (human orexin-2 receptor): 7.49

Cc1cc(NC(=O)CSc2nnnn2-c2cccc(C)c2C)n(-c2ccccc2)n1 [Example 154, 2-[1-(2,3-Dimethyl-phenyl)-1H-tetrazol-5-ylsulfanyl]-N-(5-methyl-2-phenyl-2H-pyrazol-3-yl)-acetamide]
pIC50 (human orexin-1 receptor): 5.14
pIC50 (human orexin-2 receptor): 6.18
